These results are taken from ChEMBL document CHEMBL1150249, “Antiglioma action of xanthones from Gentiana kochiana: Mechanistic and structure-activity requirements” (Bioorg Med Chem, 2008).

The source made the active and inactive calls. The calls are words filed in the database; no cut-off is given here.

Data set [1] relates to C6. Nature of the data set: Antiproliferative activity against rat C6 cells assessed as cell number after 48 hrs by crystal violet assay. Type of data set: functional, cell-based. As to conditions: C6, 48 h.
Data set [2] deals with U-251. Nature of the data set: Antiproliferative activity against human U251 cells assessed as cell number after 48 hrs by crystal violet assay. The following applies: U-251, 48 h. The format is functional, cell-based.
Data set [3] is described as follows: Inhibition of bovine brain tubulin by microtubule depolymerization assay. Details: species or system Bos taurus.
Data set [4] concerns C6. Nature of the data set: Induction apoptosis in rat C6 cells assessed as caspase activation at 50 uM after 36 hrs by flow cytometry relative to control. The format is functional.
The test system of data set [5] is U-251. Nature of the data set: Antiproliferative activity against human U251 cells assessed as cell number after 72 hrs by crystal violet assay. Type of data set: functional, cell-based.
Data set [6] relates to U-251. The data set is described as follows: Antiproliferative activity against human U251 cells assessed as mitochondrial dehydrogenase activity after 72 hrs by MTT assay. The format is functional, cell-based.
Data set [7] has as its system C6. The data set is described as follows: Induction apoptosis in rat C6 cells at 50 uM after 36 hrs by flow cytometry relative to control. The format is functional.
Data set [8] has as its system C6. The data set is described as follows: Induction of apoptosis in rat C6 cells assessed as change in morphology at 50 uM after 48 hrs by bright field microscopy. Type of data set: functional, cell-based.
The test system of data set [9] is C6. Nature of the data set: Antiproliferative activity against rat C6 cells assessed as mitochondrial dehydrogenase activity after 72 hrs by MTT assay. The format is functional, cell-based. (In general: Tetrazolium assays rely on reduction of a dye to a coloured formazan, in cell work by metabolically active cells.)
The subject of data set [10] is C6. The data set is described as follows: Induction of mitochondrial membrane potential depolarization in rat C6 cells assessed as increase in green to red fluorescence ratio at 50 uM after 24 hrs by flow cytometry. The format is functional, cell-based. A general note: In flow cytometry, cells or beads pass a laser one at a time.
The test system of data set [11] is C6. Nature of the data set: Induction of reactive oxygen species production in rat C6 cells at 50 uM after 36 hrs by flow cytometry. Type of data set: functional, cell-based.
The test system of data set [12] is U-251. Nature of the data set: Antiproliferative activity against human U251 cells assessed as cell number after 24 hrs by crystal violet assay. Type of data set: functional, cell-based.
Data set [13] in a line: Antiproliferative activity against Albino Oxford rat primary astrocytes assessed as mitochondrial respiration after 48 hrs by MTT assay. Type of data set: cell-based. As to conditions: astrocyte.
For data set [14], the system named is C6. Nature of the data set: Cell cycle arrest in rat C6 cells assessed as accumulation at G2/M phase at 50 uM after 24 hrs by flow cytometry relative to control. Type of data set: functional.
Data set [15] concerns C6. The data set is described as follows: Induction necrosis in rat C6 cells at 50 uM after 36 hrs by flow cytometry relative to control. The format is functional.
Data set [16] in a line: Antiproliferative activity against Albino Oxford rat primary astrocytes assessed as cell number after 48 hrs by crystal violet assay. The following applies: astrocyte. Type of data set: cell-based.
The test system of data set [17] is U-251. The data set is described as follows: Antiproliferative activity against human U251 cells assessed as mitochondrial dehydrogenase activity after 24 hrs by MTT assay. Type of data set: functional, cell-based.
In data set [18] the test system is C6. Nature of the data set: Cell cycle arrest in rat C6 cells assessed as accumulation at S phase at 50 uM after 24 hrs by flow cytometry relative to control. The format is functional.
Data set [19] concerns C6. Nature of the data set: Antiproliferative activity against rat C6 cells assessed as mitochondrial dehydrogenase activity after 24 hrs by MTT assay. The format is functional, cell-based.
Data set [20] deals with C6. Nature of the data set: Cell cycle arrest in rat C6 cells assessed as accumulation at G0/G1 phase at 50 uM after 24 hrs by flow cytometry relative to control. The format is functional.
The nature of data set [21]: Antiproliferative activity against Albino Oxford rat primary astrocytes assessed as change in morphology by bright field microscopy. Type of data set: cell-based. The following applies: astrocyte.
The nature of data set [22]: Antiproliferative activity against Albino Oxford rat peritoneal macrophages assessed as cell number after 48 hrs by crystal violet assay. The following applies: macrophage. The format is cell-based.
Data set [23] has as its system C6. The data set is described as follows: Antiproliferative activity against rat C6 cells assessed as cell number after 24 hrs by crystal violet assay. The format is functional, cell-based.
Data set [24] is described as follows: Antiproliferative activity against Albino Oxford rat peritoneal macrophages assessed as mitochondrial respiration after 48 hrs by MTT assay. The following applies: macrophage. The format is cell-based.
For data set [25], the system named is C6. Nature of the data set: Antiproliferative activity against rat C6 cells assessed as cell number after 72 hrs by crystal violet assay. The format is functional, cell-based.
Data set [26] deals with C6. The data set is described as follows: Antiproliferative activity against rat C6 cells assessed as cell number after 48 hrs by crystal violet assay in presence of N-acetyl-cysteine. The format is functional, cell-based.
Data set [27] has as its system C6. Nature of the data set: Antiproliferative activity against rat C6 cells assessed as caspase activation at 50 uM after 36 hrs by flow cytometry in presence of N-acetyl-cysteine. Type of data set: functional, cell-based.

A word on the IC50: it is the point on the concentration scale where inhibition reaches its midpoint. For `COc1cc(O[C@@H]2O[C@H](CO)[C@@H](O)[C@H](O)[C@H]2O)c2c(=O)c3c(OC)c(O)ccc3oc2c1`, the IC50 in the data set with C6 [1] and in the data set with U-251 [2] was more than 100 µM in each case.
With `COc1cc(O)c2c(=O)c3c(O)ccc(O)c3oc2c1` [BELLIDIFOLIN], the IC50 with C6 [1] is more than 100 µM; in the data set with U-251 [2] it was more than 100 µM; in data set [3] it was more than 50 µM.
For `COc1cc(O)c2c(=O)c3c(OC)c(OC)ccc3oc2c1` [DECUSSATIN], the 50% inhibitory concentration (IC50) in the data set on C6 [1] and in the data set on U-251 [2] was more than 100 µM throughout.
On to `O=c1c2c(O)cc(O)cc2oc2c(O)ccc(O)c12` [DEMETHYLBELLIDIFOLIN], for which the figures for the IC50 (with C6 [1]; in the data set with U-251 [2]; in data set [3]) were more than 100 µM, more than 100 µM and more than 50 µM, respectively.
As for `COc1cc(O[C@@H]2O[C@H](CO[C@@H]3OC[C@@H](O)[C@H](O)[C@H]3O)[C@@H](O)[C@H](O)[C@H]2O)c2c(=O)c3c(OC)c(O)ccc3oc2c1` [GENTIABAVAROSIDE], the IC50 with C6 [1] and in the data set on U-251 [2] was more than 100 µM throughout.
With `COc1cc(O)c2c(=O)c3c(O)c(O)ccc3oc2c1` [GENTIAKOCHIANIN], the Activity is 19.7% in the data set with C6 [4]; 24.2% in the data set with C6 [7]; “Non-toxic” in data set [13]; 52.5% with C6 [14]; 5.9% in the data set on C6 [15]; “Non-toxic” in data set [16]. The Activity in the data set with C6 [18] is 10.6%; in the data set on C6 [20] it was 33.7%; in data set [21], “Non-toxic”; in data set [22], “Non-toxic”; in data set [24] it was “Non-toxic”. In addition, the outcome in the data set on U-251 [5], in the data set with U-251 [6], with C6 [8], in the data set with C6 [9], with C6 [10] and in the data set with C6 [11] was Active. Besides, the outcome with U-251 [12], in the data set on U-251 [17], with C6 [19], with C6 [23] and in the data set on C6 [25] was Active. The half-inhibitory concentration (IC50) was found to be 31.4 µM in the data set on C6 [1], 27.3 µM with U-251 [2] and 18 µM in data set [3].
For the compound `COc1cc(O)c2c(=O)c3c(OC)c(O)ccc3oc2c1` [GETIACAULEIN], the Activity was 6% in the data set with C6 [4]; 4.5% with C6 [7]; “Non-toxic” in data set [13]; 18.8% in the data set with C6 [14]; 5.5% in the data set on C6 [15]; “Non-toxic” in data set [16]. In addition, the Activity is on record as 5.8% in the data set on C6 [18]; 73.2% in the data set with C6 [20]; “Non-toxic” in [21]; “Non-toxic” in data set [22]; “Non-toxic” in data set [24]. In addition, the result with U-251 [5], in the data set on C6 [26], with U-251 [6], with C6 [9], in the data set on C6 [10] and with C6 [11] was Active. The outcome in the data set on U-251 [12], with U-251 [17], in the data set with C6 [19], in the data set on C6 [27], in the data set on C6 [23] and with C6 [25] was Active. Moreover, the IC50 with C6 [1] is 56.6 µM; in the data set with U-251 [2] it was 53.2 µM; in data set [3], more than 50 µM.
Regarding `COc1cc(O[C@@H]2O[C@H](CO[C@@H]3OC[C@@H](O)[C@H](O)[C@H]3O)[C@@H](O)[C@H](O)[C@H]2O)c2c(=O)c3c(O)c(O)ccc3oc2c1` [ISOGENTIAKOCHIANOSIDE], the IC50 in the data set on C6 [1] and in the data set with U-251 [2] was more than 100 µM throughout.
`CC(=O)O[C@H]1C(=O)[C@@]2(C)[C@H]([C@H](OC(=O)c3ccccc3)[C@]3(O)C[C@H](OC(=O)[C@H](O)[C@@H](NC(=O)c4ccccc4)c4ccccc4)C(C)=C1C3(C)C)[C@]1(OC(C)=O)CO[C@@H]1C[C@@H]2O` [PACLITAXEL] registered a 50% inhibitory concentration (IC50) in data set [3] of 2.4 µM.
